# Laboratory results taken from ChEMBL document CHEMBL5053505, “Rational Remodeling of Atypical Scaffolds for the Design of Photoswitchable Cannabinoid Receptor Tools” (J Med Chem, 2021).
# Activity calls are given as the source filed them. The calls are words filed in the database; no cut-off is given here.
# Key:
# [1] = biological target: T1, Cannabinoid receptor 2 (Homo sapiens, UniProt P34972); assay: Antagonist activity at human CB2 Receptor expressed in CHO cell membranes measured after 24 hrs by HTRF assay; assay type: functional, Cell membrane
# T1 sequence (P34972 whole entry): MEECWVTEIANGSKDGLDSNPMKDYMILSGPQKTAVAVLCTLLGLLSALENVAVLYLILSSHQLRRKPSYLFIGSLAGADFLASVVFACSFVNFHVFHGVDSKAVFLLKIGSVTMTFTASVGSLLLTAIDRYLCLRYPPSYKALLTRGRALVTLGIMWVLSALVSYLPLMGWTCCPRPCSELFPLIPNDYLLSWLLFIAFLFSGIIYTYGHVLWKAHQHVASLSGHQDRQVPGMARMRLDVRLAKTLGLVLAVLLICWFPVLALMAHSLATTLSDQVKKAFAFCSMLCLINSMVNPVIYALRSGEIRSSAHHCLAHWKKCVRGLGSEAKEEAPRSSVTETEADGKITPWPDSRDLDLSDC
# [2] = biological target: T2, Cannabinoid receptor 1 (Homo sapiens, UniProt P21554); assay: Antagonist activity at human CB1 Receptor expressed in CHO cell membranes measured after 24 hrs by HTRF assay; assay type: functional, Cell membrane
# T2 sequence (P21554 whole entry): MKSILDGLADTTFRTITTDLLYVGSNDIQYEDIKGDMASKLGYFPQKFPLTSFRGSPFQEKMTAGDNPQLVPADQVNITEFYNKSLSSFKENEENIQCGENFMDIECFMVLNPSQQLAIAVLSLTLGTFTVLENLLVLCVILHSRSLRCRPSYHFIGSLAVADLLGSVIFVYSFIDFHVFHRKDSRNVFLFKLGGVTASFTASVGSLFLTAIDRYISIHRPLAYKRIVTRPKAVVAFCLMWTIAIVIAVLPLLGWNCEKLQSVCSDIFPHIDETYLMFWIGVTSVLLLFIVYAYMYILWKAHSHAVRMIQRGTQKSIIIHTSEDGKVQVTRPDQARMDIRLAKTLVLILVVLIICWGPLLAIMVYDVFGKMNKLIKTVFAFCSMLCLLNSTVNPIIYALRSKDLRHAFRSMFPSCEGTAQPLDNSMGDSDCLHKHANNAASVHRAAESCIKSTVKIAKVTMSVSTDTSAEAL
# [3] = biological target: T1, Cannabinoid receptor 2; assay: Antagonist activity at human CB2 Receptor expressed in CHO-K1 cells assessed as reduction in CP55940-induced ERK1/2 phosphorylation measured Western blot analysis; assay type: functional, cell-based; conditions: filed as antagonist
# [4] = biological target: T2, Cannabinoid receptor 1; assay: Antagonist activity at human CB1 Receptor expressed in CHO-K1 cells assessed as reduction in CP55940-induced ERK1/2 phosphorylation measured Western blot analysis; assay type: functional, cell-based
Structure (SMILES),IC50 [1],IC50 [2],Activity [3],Activity [4]
Cc1c(C(=O)NCCCc2cccc(/N=N\c3ccccc3)c2)nn(CCCCCO)c1-c1ccccc1,1.1 µM,3.8 µM,,
Cc1c(C(=O)Nc2ccccc2/N=N/c2ccccc2)nn(CCCCCO)c1-c1ccccc1,5.5 µM,,,
Cc1c(C(=O)NCCc2ccccc2/N=N\c2ccccc2)nn(CCCCCO)c1-c1ccccc1,0.36 µM,1.7 µM,,
Cc1c(C(=O)NCCc2cccc(/N=N\c3ccccc3)c2)nn(CCCCCO)c1-c1ccccc1,1.6 µM,3.3 µM,,
Cc1c(C(=O)Nc2ccc(/N=N\c3ccccc3)cc2)nn(CCCCCO)c1-c1ccccc1,9 µM,,,
Cc1c(C(=O)NCc2cccc(/N=N\c3ccccc3)c2)nn(CCCCCO)c1-c1ccccc1,7 µM,5.8 µM,,
Cc1c(C(=O)NCc2ccccc2/N=N\c2ccccc2)nn(CCCCCO)c1-c1ccccc1,0.07 µM,1.1 µM,Active,inactive
Cc1c(C(=O)NCCCc2ccc(/N=N\c3ccccc3)cc2)nn(CCCCCO)c1-c1ccccc1,3.5 µM,5.4 µM,,
Cc1c(C(=O)NCCCc2ccccc2/N=N/c2ccccc2)nn(CCCCCO)c1-c1ccccc1,3.4 µM,9 µM,,
Cc1c(C(=O)NCCc2ccccc2/N=N/c2ccccc2)nn(CCCCCO)c1-c1ccccc1,2.1 µM,3.8 µM,,
Cc1c(C(=O)NCc2ccccc2/N=N/c2ccccc2)nn(CCCCCO)c1-c1ccccc1,3.2 µM,1.6 µM,Active,inactive
Cc1c(C(=O)Nc2ccccc2/N=N\c2ccccc2)nn(CCCCCO)c1-c1ccccc1,0.62 µM,,,
Cc1c(C(=O)Nc2cccc(/N=N/c3ccccc3)c2)nn(CCCCCO)c1-c1ccccc1,1.5 µM,6.2 µM,,
Cc1c(C(=O)NCCc2ccc(/N=N/c3ccccc3)cc2)nn(CCCCCO)c1-c1ccccc1,,7.9 µM,,
Cc1c(C(=O)Nc2cccc(/N=N\c3ccccc3)c2)nn(CCCCCO)c1-c1ccccc1,0.41 µM,2.4 µM,,
Cc1c(C(=O)NCCCc2ccccc2/N=N\c2ccccc2)nn(CCCCCO)c1-c1ccccc1,1.3 µM,3.9 µM,,
Cc1c(C(=O)NCCCc2cccc(/N=N/c3ccccc3)c2)nn(CCCCCO)c1-c1ccccc1,3.7 µM,4.8 µM,,
Cc1c(C(=O)NCCc2ccc(/N=N\c3ccccc3)cc2)nn(CCCCCO)c1-c1ccccc1,5.2 µM,3.3 µM,,
Cc1c(C(=O)NCc2ccc(/N=N\c3ccccc3)cc2)nn(CCCCCO)c1-c1ccccc1,6.9 µM,4.1 µM,,
Cc1c(C(=O)NCc2ccc(/N=N/c3ccccc3)cc2)nn(CCCCCO)c1-c1ccccc1,,8.3 µM,,
Cc1c(C(=O)NCCCc2ccc(/N=N/c3ccccc3)cc2)nn(CCCCCO)c1-c1ccccc1,,7.2 µM,,
Cc1c(C(=O)NCc2cccc(/N=N/c3ccccc3)c2)nn(CCCCCO)c1-c1ccccc1,,9.4 µM,,
Cc1c(C(=O)NCCc2cccc(/N=N/c3ccccc3)c2)nn(CCCCCO)c1-c1ccccc1,6.5 µM,5.9 µM,,
